Publication PMC12040169 (PLOS Biology, 2025)

Experiment: in vitro
Conditions: human, hela cells, % viability

Compound	viability at 28.5 h, 10 µM
O=C1NC2(CCc3ccccc31)CCN(C(=O)CCn1cccn1)C2 (centres unmarked) [CBK283352]	91.2%
O=C1CC2(CCN(S(=O)(=O)Cc3ccc(Cl)cc3)CC2)CN1 [CBK283355]	102%
COCC(=O)N1C[C@@H](c2ccc(F)c(F)c2)[C@@]2(CCCC(=O)N2)C1 [CBK283358]	103%
O=C1CC2(CCN(Cc3ccc(C(F)(F)F)cc3)CC2)CN1 [CBK283359]	86.8%
O=C(NC[C@H]1CC[C@H](c2nnc(-c3ccsc3)o2)CC1)C1CC1 [CBK283361]	85.5%
O=C(NC[C@H]1CC[C@H](c2nnc(-c3ccsc3)o2)CC1)C1CCC1 [CBK283363]	87.1%
Cc1ncc(CNC(=O)C2CC2)c(-c2cn(C)c3ccccc23)n1 [CBK283366]	103%
O=C1CCOC[C@]2(CN(Cc3ccccc3)C[C@H]2c2ccccc2)N1 [CBK283367]	92.6%
CC(=O)N1C[C@@H](c2cccc(C)c2)[C@@H]2CN(Cc3cccnc3)CC[C@@H]21 [CBK283368]	89.7%
CC(=O)N1C[C@@H](c2cccc(C)c2)[C@@H]2CN(Cc3ccncc3)CC[C@@H]21 [CBK283370]	96.1%
COc1cccc([C@H]2CN(C(C)=O)[C@@H]3CCN(C4CCCC4)C[C@H]23)c1 [CBK283375]	89.7%
O=C(C1CC1)N1CCC(c2nnc(-c3ccsc3)o2)CC1 [CBK283376]	91.6%
O=C(C1CCCC1)N1CCC(c2nnc(-c3ccsc3)o2)CC1 [CBK283379]	86.5%
O=C(C1CCCCC1)N1CCC(c2nnc(-c3ccsc3)o2)CC1 [CBK283380]	104%
O=C(C1CC1)N1C[C@@H](c2ccsc2)[C@@H]2CN(C3CCCC3)CC[C@@H]21 [CBK283382]	107%
Cc1c(C(=O)N2CCC(c3cc4ncccc4[nH]3)CC2)cnn1C [CBK283384]	88.1%
O=C(c1ccccc1)N1CCC(c2cc3ncccc3[nH]2)CC1 [CBK283385]	89.4%
COc1ccc(CC(=O)N2CCC(c3cc4ncccc4[nH]3)CC2)cc1 [CBK283386]	84.3%
CCCNC(=O)c1cc(C2CCCN(Cc3ccc(F)cc3)C2)no1 (centres unmarked) [CBK283387]	94%
CCCNC(=O)c1cc(C2CCCN(Cc3ccccc3)C2)no1 (centres unmarked) [CBK283388]	98%
CC(C)(C)NC(=O)NC1CCC2(CC1)CC(=O)c1ccccc1O2 (centres unmarked) [CBK283390]	109%
CC(C)n1cc(C(=O)N2CCC(c3cc4ncccc4[nH]3)CC2)cn1 [CBK283392]	95.6%
O=C(Cc1cccs1)N1CCC(c2cc3ncccc3[nH]2)CC1 [CBK283393]	86.5%

Compound	viability at 28.5 h, 10 µM
O=C(c1cscn1)N1CCCCC1c1nc2ccccc2[nH]1 (centres unmarked) [CBK283394]	91%
COc1cccc(C(=O)N2CCC(c3cc4ncccc4[nH]3)CC2)c1 [CBK283398]	117%
Cn1cc2c(n1)[C@H]1CN(C(=O)c3cc(C(F)(F)F)n(C)n3)C[C@H]1C2 [CBK283399]	88.5%
CC(=O)Nc1ccc(CN2CCCC(c3cc4ncccc4[nH]3)C2)cc1 (centres unmarked) [CBK283402]	92.4%
Cc1cc(-c2cn(C)nc2C2CCCCN2C(=O)C2CCC2)on1 (centres unmarked) [CBK283403]	83.7%
Cc1cc(-c2cn(C)nc2C2CCCCN2C(=O)C2CCCC2)on1 (centres unmarked) [CBK283404]	96.9%
CCCC(=O)N1CCCCC1c1nn(C)cc1-c1cc(C)no1 (centres unmarked) [CBK283407]	106%
Cc1noc(-c2cn(C)nc2C2CCCCN2CC2CC2)c1C (centres unmarked) [CBK283408]	88.1%
CCCC(=O)N1CCCCC1c1nn(C)cc1-c1onc(C)c1C (centres unmarked) [CBK283409]	80.5%
CCC(=O)N1CCCCC1c1nn(C)cc1-c1onc(C)c1C (centres unmarked) [CBK283411]	80.5%
Cn1ccc(C(=O)N2CCCC(c3cc4ncccc4[nH]3)C2)n1 (centres unmarked) [CBK283412]	89.8%
CC(C)(C)OC(=O)N1CCC(c2cc(=O)n3c(n2)CCCCC3)C1 (centres unmarked) [CBK283415]	88.4%
COc1cccc(C(=O)N2CCCC(c3cc4ncccc4[nH]3)C2)c1 (centres unmarked) [CBK283416]	104%
COc1ccc(CC(=O)N2CCCC(c3cc4ncccc4[nH]3)C2)cc1 (centres unmarked) [CBK283418]	94.5%
CC(C)n1cc(C(=O)N2CCCC(c3cc4ncccc4[nH]3)C2)cn1 (centres unmarked) [CBK283419]	88.2%
COc1ccc(CC(=O)N2CCC(c3cc4ccccc4cn3)C2)cc1 (centres unmarked) [CBK283421]	105%
Cc1cc(O)cc(C2CCCN(C(=O)CC3CCCC3)C2)n1 (centres unmarked) [CBK283422]	107%
Cc1csc(C(=O)N2CCCC(c3cc(O)cc(C)n3)C2)c1 (centres unmarked) [CBK283423]	89.5%
COc1ccc(C(=O)N2C[C@H]3Cc4c(n[nH]c4C(F)F)[C@H]3C2)s1 [CBK283425]	95.4%
O=C(CC1CCCCC1)N1CCCC1c1n[nH]cc1-c1ccncc1 (centres unmarked) [CBK283429]	90.4%
Cc1ccccc1CC(=O)N1CCCC1c1n[nH]cc1-c1ccncc1 (centres unmarked) [CBK283431]	87.7%
Cc1nc(C)c(C(=O)N2CCC(c3cc4cnccc4[nH]3)CC2)s1 [CBK283432]	102%
O=C(c1ccccc1)N1CCCC1c1n[nH]cc1-c1ccncc1 (centres unmarked) [CBK283433]	88.5%

Compound	viability at 28.5 h, 10 µM
O=C(Cc1ccccc1)N1CCCC1c1n[nH]cc1-c1ccncc1 (centres unmarked) [CBK283435]	85.7%
Cc1cc(O)cc(C2CCCN(C(=O)c3cccc(F)c3)C2)n1 (centres unmarked) [CBK283440]	100%
Cn1ccnc1C(=O)N1C[C@H]2CCc3c(n[nH]c3C(F)(F)F)[C@H]2C1 [CBK283441]	101%
Cc1cc(Oc2ccc(N(C)C)cc2)cc(C2CCCNC2)n1 (centres unmarked) [CBK283442]	101%
Cn1cc(-c2ccncc2)c(C2CCCCN2C(=O)c2ccccc2)n1 (centres unmarked) [CBK283444]	75.7%
O=C(c1ccc(F)cc1)N1CCC(c2cc3cnccc3[nH]2)CC1 [CBK283445]	87.3%
CN(C)c1ccc(C(=O)N2CCC(c3cc4cnccc4[nH]3)CC2)cc1 [CBK283446]	83.8%
O=C(COc1ccccc1)N1CCC(c2cc3cnccc3[nH]2)CC1 [CBK283449]	97.6%
COCCC(=O)N1C[C@@H](c2cccc(F)c2)[C@@]2(CCCC(=O)N2)C1 [CBK283450]	88.1%
CCC(CC)C(=O)N1CCCC1c1nn(C)cc1-c1cc(C)no1 (centres unmarked) [CBK283452]	84.5%
Cc1cc(-c2cn(C)nc2C2CCCN2C(=O)CC(C)(C)C)on1 (centres unmarked) [CBK283453]	87.3%
COc1ccccc1C(=O)N1CCC[C@@H](N)[C@@H]1c1ccccc1F [CBK283458]	86%
N[C@@H]1CCCN(Cc2ccncc2)[C@H]1c1ccccc1F [CBK283459]	88.4%
Cc1ncsc1C(=O)N1CCCC(c2cc3cnccc3[nH]2)C1 (centres unmarked) [CBK283461]	94%
CC(C)(C)OC(=O)N1CCC[C@]2(CCC(=O)N2)[C@H]1c1ccc(F)cc1 [CBK283462]	86.1%
Fc1ccc(-c2c[nH]nc2C2CCOCC2)cc1 [CBK283464]	103%
Fc1cccc(-c2c[nH]nc2C2CCOCC2)c1 [CBK283465]	91%
CCC(CC)C(=O)N1CCCC1c1n[nH]cc1-c1ccncc1 (centres unmarked) [CBK283467]	87.9%
CC(=O)N1CCCC(c2[nH]c3cccnc3c2CN(C)C)C1 (centres unmarked) [CBK283469]	89.1%
CN(C)Cc1cc(-c2ccccc2F)nn1CCNC(=O)C1CCC1 [CBK283471]	93.1%
Cc1cccc(CC(=O)N2CCCC2c2ccnc3cc(C)nn23)c1 (centres unmarked) [CBK283472]	105%
CN1C(=O)c2ccccc2C(=O)[C@@]2(C)CN(C3CCCC3)C[C@@H]12 [CBK283476]	83.3%
CCN1C(=O)c2ccccc2C(=O)[C@@]2(C)CN(CC(C)C)C[C@@H]12 [CBK283479]	102%

Compound	viability at 28.5 h, 10 µM
CN1C[C@H]2N(C)C(=O)c3ccccc3C(=O)[C@@]2(C)C1 [CBK283482]	86.7%
CN(C(=O)C1CCCO1)c1nc2c(s1)CCc1occc1-2 (centres unmarked) [CBK283483]	88.8%
COc1ccc(NCc2cc3sccc3n2C)cc1OC [CBK283486]	87%
Fc1ccc(CNc2c(-c3cccs3)nc3cnccn23)cc1 [CBK283487]	112%
O=C1NC2=C(C(=O)N(CCN3CCCC3)C2)C(c2ccccc2)N1 (centres unmarked) [CBK283493]	103%
c1coc(CNc2c(-c3ccco3)nc3cnccn23)c1 [CBK283496]	103%
O=C(CN1CCC(O)(Cc2ccccc2)CC1)N1CCCCCC1 [CBK283500]	96.9%
O=C(CN1CCC(c2ccc(F)cc2)CC1)N1CCCC1 [CBK283502]	98.7%
CCN(CC)C(=O)N1CCC(c2ccncc2)CC1 [CBK283503]	101%
O=C(CN1CCC(c2ccncc2)CC1)N1CCCCC1 [CBK283504]	102%
c1ccc(CN2CCC(c3ccncc3)CC2)nc1 [CBK283505]	101%
O=C(c1cccnc1)C1CCN(C(=O)Cc2cccc(F)c2)CC1 [CBK283506]	101%
COC(=O)[C@H]1CN(C(=O)CN2CCCC2=O)C[C@@H]1c1ccc(F)cc1 [CBK283507]	93.3%
CCn1cc(C(=O)N2C[C@H](C(=O)OC)[C@@H](c3ccccc3F)C2)cn1 [CBK283510]	94.2%
CC(C)c1nccn1CCC(=O)N1CCC(c2ccncc2)CC1 [CBK283512]	105%
Cc1nc2cc(C(=O)N3CCC(c4ccncc4)CC3)ccc2s1 [CBK283513]	85.7%
O=C(c1cccnc1)C1CCN(C(=O)Cc2ccc(F)cc2)CC1 [CBK283515]	90.5%
COC(=O)[C@H]1CN(C(=O)Cc2ccccn2)C[C@@H]1c1ccc(F)cc1 [CBK283519]	93.8%
COC(=O)[C@H]1CN(C(=O)c2scnc2C)C[C@@H]1c1ccc(F)cc1 [CBK283520]	104%
COC(=O)[C@H]1CN(C(=O)C2CC(=O)N(C)C2)C[C@@H]1c1ccc(F)cc1 (some centres unmarked) [CBK283521]	93%
